The source of these data is US11542524B2, “Elimination of proliferating cells from stem cell-derived grafts” (priority 2017, dated 2023).

Data set [1] concerns HSV-TK-transduced cells. The data set is described as follows: Cell proliferation assay, low copy number, HSV-TK. Type of data set: cell-based. Here is the method:
(§1) In another experiment, the cells were transduced with a low copy number of the plasmids and, thus, differences between the different nucleoside analogs could be observed. […] Ganciclovir at high concentrations is also toxic to non-transduced cells.
(§2) Finally, the cell proliferation assay was also performed with the SR39 or HSV-TK-transduced cells treated with penciclovir. […] Thus, penciclovir may be used as the prodrug with the suicide gene construct, such as HSV-TK, SR39, or UL97.

The test system of data set [2] is SR39-transduced cells. Put plainly: Cell proliferation assay, low copy number, SR39. Type of data set: cell-based. Here is the method:
as §1, §2

Data set [3] has as its system HEK cells transfected with UL97 under the UBI promoter. The data set is described as follows: Cell proliferation/viability assay, high copy number plasmid, UL97. The class given is cell-based. Here is the method:
(§3) In further experiments, cell proliferation assay was performed using different suicide gene constructs in combination with various drugs, such as acyclovir, ganciclovir, or pencilovir. In the first assay, a kinase from human cytomegalovirus (CMV), UL97, was used as a novel suicide gene. The HEK cells were transfected with a high copy number of the respective plasmids.

Data set [4] has as its system TK-PSC transplanted into the striatum. The data set is described as follows: Transplantation of TK-PSC into striatum and ganciclovir treatment (teratoma formation). Type of data set: in vivo, NOD/SCID mice. Here is the method:
(§4) FIGS. 3A-3C: Schedule of cell transplantation and ganciclovir treatment. Different transplantation and ganciclovir treatment protocols were used. (A) Schematic representation of the differentiation protocol towards DA neurons. Pluripotent stem cells were cultured as neurospheres for 1 week for midbrain orientation phase, followed by a 2 or 3 week-maturation phase. (B) Transplantation of undifferentiated pluripotent stem cells with early or late ganciclovir treatment. Early treatment: undifferentiated pluripotent stem cells were transplanted and ganciclovir (or PBS control) was applied by daily intra-peritoneal injection from day 4 to day 19 post-transplantation. Late treatment: undifferentiated pluripotent stem cells were transplanted and ganciclovir (or PBS control) was applied by daily intra-peritoneal injection from day 30 to day 45 post-transplantation. (C) Transplantation of 2 or 3 week NPC: NPC containing—neurospheres were dissociated and transplanted into mice striatum. Ganciclovir (or PBS control) treatment was given from day 4 to day 19 post-transplantation. For all protocols, animals were sacrificed 1 month after termination of ganciclovir treatment.
(§5) Stereotaxic engraftment and ganciclovir treatment:
(§6) Undifferentiated pluripotent stem cells (20000 cells/μL) and dissociated neurospheres (100.000 cells/μL) were injected in the striatum of anesthetized mice using a 27-G Hamilton syringe. Injection coordinates for lateral striatum were: bregma=0.74 mm, mediolateral=2.25 mm, dorsoventral=3.5 mm; for medial striatum: bregma=0.74 mm, mediolateral=1.4 mm, dorsoventral=2.8 mm. Mice were euthanized one month later after ganciclovir termination.
(§7) Morphological and Phenotypic Analysis of Injected Surviving Cells:
(§8) Anesthetized mice were fixed by intracardiac perfusion of 4% paraformaldehyde in phosphate-buffered saline. Immunohistochemical detection was performed on 10-μm thick free-floating cryostat sections using Alexa 488-, or 555-labeled secondary antibodies or the biotin-avidin-peroxidase complex method (Vector). The following primary antibodies were used: Nestin (rabbit polyclonal anti-human, from Chemicon, 1/400), β3-tubulin (mouse monoclonal from Sigma or rabbit polyclonal from Covance, 1/2000), Neuronal Nuclei-specific protein (NeuN, mouse monoclonal from Chemicon, 1/1000), Glial Fibrillary Acidic Protein (GFAP, rabbit polyclonal from Dako, 1/2000), Proliferating Cell Nuclear Antigen (PCNA, mouse monoclonal from Dako, 1/100), Tyrosin Hydroxylase (TH, rabbit polyclonal from millipore, 1/500), iba 1 (polyclonal rabbit from Wako, 1/500), HSV-TK (mouse monoclonal, Gentaur, 1/100), ki67 (monoclonal rabbit, Abcam, 1/100 or mouse, Chemicon, 1/100).

Data set [5] concerns HEK cells transfected with HSV-TK plasmid. Put plainly: Cell proliferation/viability assay, high copy number plasmid, HSV-TK. The class given is cell-based. Here is the method: as §3
The test system of data set [6] is non-transduced cells. The data set is described as follows: Cell proliferation assay, non-transduced cells. Type of data set: cell-based. Here is the method: as §1, §2
The subject of data set [7] is TK-PSC (HS415 pluripotent stem cells expressing HSV-TK under the Ki67 promoter). The data set is described as follows: Calcein cell viability assay, ganciclovir on TK-PSC. Type of data set: cell-based, human. On the procedure: (§9) Cell Proliferation Measurement by Calcein Assay:
(§10) Cells were plated onto a 96 wells pre-coated with polyornothine+ECM (1/50). Respectively 1000 cells for pluripotent stem cells, 5000 cells for early NPC and 30000 cells for late NPC. Ganciclovir (Cemevene diluted in PBS, Roche) treatment was added the day after cell plating for PSC, 3 days later for early NPC and one week later for late NPC. Calcein (2 μM) was added for different time course of ganciclovir treatment (24H to 96H). Cell survival was measured by calcein integration after 24h of incubation in a 37° C. incubator.

Data set [8] deals with regular PSCs (not transduced with the TK construct). Put plainly: Calcein cell viability assay, ganciclovir on control PSC. As to conditions: concentrations of 40 μM. The class given is cell-based, human. On the procedure: as §9, §10
Data set [9] has as its system TK-NPCs. Put plainly: Calcein cell viability assay, ganciclovir time course on TK-NPC. The class given is cell-based, human. Conditions: 40 μM. On the procedure: as §9, §10
For data set [10], the system named is control neurons. Put plainly: Calcein cell viability assay, ganciclovir on control neurons. Type of data set: cell-based, human. As to conditions: concentrations up to 40 μM. On the procedure:
as §9, §10

For data set [11], the system named is TK-NPC transplants. The data set is described as follows: Transplantation of 2-3 week NPC neurospheres into striatum and ganciclovir treatment. Type of data set: in vivo, mice. Here is the method: as §4, with “Ganciclovir (or PBS control) treatment was given from day 4 to day 19 post-transplantation.” left out
as §5, §6, §7, §8
BrdU (100 mg/kg, Millipore) was injected intraperitoneally twice daily for 3 consecutive days. Mice were sacrificed 5 days later and perfused, through the heart, with PBS and 4% paraformaldehyde in PBS. […]

Entries after “also recorded” stand apart in the source; their conditions may differ.

For the molecule `Nc1nc2c(ncn2COCCO)c(=O)[nH]1` [acyclovir, Acyclovir], the “concentration needed to kill HSV-TK-transduced cells” value in data set [1] was “very high concentrations”. For the same molecule, the “concentration needed to kill SR39-transduced cells” value in data set [2] was “very high concentrations”.
Consider `Nc1nc(O)c2ncn(COC(CO)CO)c2n1` [ganciclovir, Ganciclovir], for which the “sensitivity of UL97-transfected HEK cells” value in [3] is “showed sensitivity”. The “teratoma formation, early ganciclovir treatment” value in data set [4] (15 days ganciclovir starting 4 days post-transplantation, daily intra-peritoneal injection) is “no observed teratomas; also recorded: absence of teratoma formation and cell proliferation”. Besides, in [4] (PSC transplanted, early treatment), the “development of large tumors (graft surface), early ganciclovir treatment” value is recorded as “completely prevented”. Also, the “tumor size (graft surface), late ganciclovir treatment” value in [4] (PSC transplanted, late treatment) is reported as “did not have any effect”. In addition, the “human cells (HCM) remaining in graft, early ganciclovir treatment” value in [4] (day 4 to 19 post-transplantation, analysed one month after end of treatment) is “hardly any human cells left; also recorded: barely detectable”. Moreover, the “teratoma formation, late ganciclovir treatment” value in data set [4] (ganciclovir days 30-45 post-transplantation, sacrifice 30 days after end of treatment) is listed as “teratoma formation in both; also recorded: no difference”. In addition, the “sensitivity of HSV-TK-transfected HEK cells” value in data set [5] is recorded as “sensitivity”. Also, in data set [1], the “concentration needed to kill HSV-TK-transduced cells” value is reported as “relatively low concentration”. For the same molecule, the “toxicity to non-transduced cells” value in data set [6] (at high concentrations) is “toxic”. Moreover, in [7] (40 μM), the “time in which TK PSCs were killed” value is reported as no more than 4 days. Besides, in data set [7] (96h exposure), the “sensitivity of TK PSCs to ganciclovir exposure” value is “highly sensitive”. Further, in [7] (TK PSCs, 96h exposure), the “ganciclovir concentration at which loss of cells was almost complete” value was 10 µM and the “ganciclovir concentration at which loss of cells was observed” value is 2.5 µM. The “effect on regular (control) PSCs” value in data set [8] is on record as “resistant; also recorded: no ganciclovir toxicity is observed”. Moreover, in [9] (TK-NPCs after 1 week of neurosphere differentiation), the “time to complete killing of TK-NPCs” value is recorded as 8 days. For the same molecule, the “killing of TK-NPCs” value in data set [9] (TK-NPCs after 2 weeks of neurosphere differentiation) was “not killed”. In addition, in data set [10], the “effect on control neurons” value is given as “not affected”. The “concentration needed to kill SR39-transduced cells” value in data set [2] is recorded as “relatively low concentration”. In [11] (NPC derived from 2-3 weeks old neurospheres), the “size of NPC transplants (graft surface)” value is “not affected”. The “PCNA / Ki67 staining pattern of transplants” value in [11] (NPC transplants) was “did not alter this pattern”. In addition, the “neural markers of transplanted cells (beta 3 tubulin, TH, nestin)” value in data set [11] (immunofluorescence 7 weeks after transplantation) is on record as “None of these markers were affected”. Further, in data set [11] (treated on days 7-22 following transplantation, sacrifice 4 weeks after end of treatment), the “graft development, PBS versus ganciclovir” value is recorded as “No difference was observed”.
For the molecule `Nc1nc2c(ncn2CCC(CO)CO)c(=O)[nH]1` [penciclovir, Penciclovir], the “concentration needed to kill HSV-TK-transduced cells” value in [1] is on record as “relatively low concentrations”. In addition, in [6], the “toxicity in untransduced cells” value is on record as “did not show any toxicity”. In data set [2], the “concentration needed to kill SR39-transduced cells” value is “relatively low concentrations”.
